Read-outs that look alike come from different tables or passages of the source. *1 amine or outer side, *2 acyl side, *3 side chain or, on linkers, in order; H or OH if unused. Where a SMILES comes first, the peptide text is derived from it. Bridges are numbered along the chain shown (N, C = ends). Where no end group is shown, it is not given here. Side-chain parts run from the residue outwards. [ ]: non-standard residue; d: D form. The star is where a group is joined. γGlu = O=C(O)[C@H](CCC(=O)[*:2])N[*:1]; Palmitoyl = CCCCCCCCCCCCCCCC(=O)*; Nle = CCCC[C@H](N)C(=O)O; Aib = CC(C)(N)C(=O)O
Key:
hGIPR = biological target: T1, hGIPR (Homo sapiens, UniProt P48546); experiment: hGIPR-mediated cAMP induction assay in CHO cell line; format: cell-based
T1 construct: expressed in transfected cells; host or cells: CHO
T1 sequence (P48546 22-466): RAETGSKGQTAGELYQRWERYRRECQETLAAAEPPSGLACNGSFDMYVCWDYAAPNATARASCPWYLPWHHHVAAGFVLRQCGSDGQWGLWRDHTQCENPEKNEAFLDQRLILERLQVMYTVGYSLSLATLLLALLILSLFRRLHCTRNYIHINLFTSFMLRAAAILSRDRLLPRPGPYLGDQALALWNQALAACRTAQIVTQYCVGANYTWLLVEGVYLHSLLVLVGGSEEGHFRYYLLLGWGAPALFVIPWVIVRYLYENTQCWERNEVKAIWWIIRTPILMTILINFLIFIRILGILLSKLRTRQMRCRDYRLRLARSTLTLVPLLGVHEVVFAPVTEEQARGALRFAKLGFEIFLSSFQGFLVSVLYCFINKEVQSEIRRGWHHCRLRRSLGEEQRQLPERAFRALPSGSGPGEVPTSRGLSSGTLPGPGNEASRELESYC

hGLP-1R = biological target: T2, hGLP-1R (Homo sapiens, UniProt P43220); experiment: hGLP-1R-mediated cAMP induction assay in CHO cell line; format: cell-based;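 further: CHO cells expressing human GLP-1R, treated 30 min at 37 °C, intracellular cAMP measured by competitive fluorescent immunoassay and converted via a cAMP standard curve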
T2 construct: expressed in transfected cells; host or cells: CHO
T2 sequence (P43220 24-463): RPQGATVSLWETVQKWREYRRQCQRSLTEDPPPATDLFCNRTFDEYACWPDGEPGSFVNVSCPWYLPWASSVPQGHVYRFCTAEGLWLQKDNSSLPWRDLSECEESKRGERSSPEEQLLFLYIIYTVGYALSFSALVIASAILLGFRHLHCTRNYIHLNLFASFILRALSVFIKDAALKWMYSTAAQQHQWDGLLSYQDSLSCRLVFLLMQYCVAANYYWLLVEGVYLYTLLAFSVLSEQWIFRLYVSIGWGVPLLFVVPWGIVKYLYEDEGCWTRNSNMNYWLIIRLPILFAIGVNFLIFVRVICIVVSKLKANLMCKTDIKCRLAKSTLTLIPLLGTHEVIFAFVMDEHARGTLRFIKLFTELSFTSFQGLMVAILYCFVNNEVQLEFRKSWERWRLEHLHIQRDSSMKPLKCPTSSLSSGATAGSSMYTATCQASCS
Text: The cAMP in the sample or standard competes with horseradish peroxidase (HRP)-labeled cAMP conjugate for binding sites on the anti-cAMP antibodies. In the absence of cAMP, most of the HRP-cAMP conjugate is bound to the antibody. Increasing concentrations of cAMP competitively decrease the amount of bound conjugate, thus decreasing measured HRP activity.
Assay kit: CatchPoint™ Cyclic-AMP Fluorescent Assay Kit (Molecular Devices, Product # R8088)
Cell lines: CHO hGLP1R, CHO hGIPR
Cell seeding: CHO hGLP1R or CHO hGIPR cells: 10,000 cells/well/100 uL at 37° C. 5% CO2 overnight.
Gently aspirate off media and wash the cells with KRBG Buffer, 100 uL/well.
Incubate the plate for 10 min at room temperature. Then add the KRBG buffer with 3× final concentration of the tested samples (5-foled series diluted from 5,000 nM), 50 uL/well. Incubate the plate at 37° C. 5% CO2 for 30 min.
Add 50 uL of Lysis buffer to each well and put the plate on a shaker for 10 min.
Place 40 uL of samples and analyze in appropriate wells. And test the cAMP concentration in each sample by following the manufacture's instruction.
Detect the fluorescence signal at Ex: 490 nm and Em: 530 nm. Transfer the FI signal to cAMP concentration by the cAMP standard curve. The Dose-response curve and EC50 were obtained by logistic fitting of Origin 8.

Molecule	EC50 (hGIPR; Table 3, CHO hGIPR cells)	GIP Receptor Relative Potency (hGIPR; Table 3, against native GIP)	EC50 (hGLP-1R; Table 3, CHO hGLP1R cells)	GLP-1 Receptor Relative Potency (hGLP-1R; Table 3, against native GLP-1)	EC50 (hGIPR; Table 1, CHO/hGIPR cells, read-out: GIPR EC50)	GIPR Relative Potency (hGIPR; Table 1, against native GIP)	EC50 (hGLP-1R; Table 1, CHO/hGLP-1R cells, read-out: GLP-1R EC50)	GLP-1R Relative Potency (hGLP-1R; Table 1, against native GLP-1)	GIPR activation (GIP activity) against native GIP (hGIPR; CHO/hGIPR cell assay)	GLP-1R activation (GLP-1 activity) against native GLP-1 (hGLP-1R)
CCCCCCCCCCCCCCCC(=O)N[C@@H](CCC(=O)N[C@@H](CCC(=O)NCCCC[C@H](NC(=O)[C@@H](NC(=O)[C@H](C)NC(=O)[C@H](CCC(=O)O)NC(=O)[C@H](CCCCN)NC(=O)[C@H](CCC(=O)O)NC(=O)[C@H](CCSC)NC(=O)[C@H](Cc1ccc(O)cc1)NC(=O)[C@@H](NC(=O)[C@H](CO)NC(=O)[C@H](Cc1ccc(O)cc1)NC(=O)[C@H](CC(=O)O)NC(=O)[C@H](CO)NC(=O)[C@@H](NC(=O)[C@H](Cc1ccccc1)NC(=O)[C@@H](NC(=O)CNC(=O)[C@H](CCC(=O)O)NC(=O)C(C)(C)NC(=O)[C@@H](N)Cc1ccc(O)cc1)[C@@H](C)O)[C@@H](C)O)[C@@H](C)CC)C(C)C)C(=O)N[C@@H](CCC(=O)O)C(=O)N[C@@H](Cc1ccccc1)C(=O)N[C@H](C(=O)N[C@@H](C)C(=O)N[C@@H](Cc1c[nH]c2ccccc12)C(=O)N[C@@H](CC(C)C)C(=O)N[C@H](C(=O)N[C@@H](CCCCN)C(=O)NCC(=O)NCC(=O)N1CCC[C@H]1C(=O)N[C@@H](CO)C(=O)N[C@@H](CO)C(=O)NCC(=O)N[C@@H](C)C(=O)N1CCC[C@H]1C(=O)N1CCC[C@H]1C(=O)N1CCC[C@H]1C(=O)N[C@@H](CO)C(N)=O)C(C)C)[C@@H](C)CC)C(=O)O)C(=O)O [Compound 093] (H-Y[Aib]EGTFTSDYSIYMEKEAVK([γGlu-γGlu-Palmitoyl])EFIAWLVKGGPSSGAPPPS-NH2)	0.03 nM	133.3	0.43 nM	232.5						
CCCCCCCCCCCCCCCC(=O)N[C@@H](CCC(=O)N[C@@H](CCC(=O)NCCCC[C@H](NC(=O)[C@H](CO)NC(=O)[C@@H]1CCCN1C(=O)[C@@H]1CCCN1C(=O)[C@@H]1CCCN1C(=O)[C@H](C)NC(=O)CNC(=O)[C@H](CO)NC(=O)[C@H](CO)NC(=O)[C@@H]1CCCN1C(=O)CNC(=O)CNC(=O)[C@H](CCCCN)NC(=O)[C@@H](NC(=O)[C@H](CC(C)C)NC(=O)[C@H](Cc1c[nH]c2ccccc12)NC(=O)[C@H](C)NC(=O)[C@@H](NC(=O)[C@H](Cc1ccccc1)NC(=O)[C@H](CCC(=O)O)NC(=O)[C@H](CCCNC(=N)N)NC(=O)[C@@H](NC(=O)[C@H](C)NC(=O)[C@H](CCC(=O)O)NC(=O)[C@H](CCCCN)NC(=O)[C@H](CCC(=O)O)NC(=O)[C@H](CCSC)NC(=O)[C@H](Cc1ccc(O)cc1)NC(=O)[C@@H](NC(=O)[C@H](CO)NC(=O)[C@H](Cc1ccc(O)cc1)NC(=O)[C@H](CC(=O)O)NC(=O)[C@H](CO)NC(=O)[C@@H](NC(=O)[C@H](Cc1ccccc1)NC(=O)[C@@H](NC(=O)CNC(=O)[C@H](CCC(=O)O)NC(=O)C(C)(C)NC(=O)[C@@H](N)Cc1ccc(O)cc1)[C@@H](C)O)[C@@H](C)O)[C@@H](C)CC)C(C)C)[C@@H](C)CC)C(C)C)C(N)=O)C(=O)O)C(=O)O [Compound 091]	0.041 nM	287.8	0.116 nM	921.5						
CCCCCCCCCCCCCCCC(=O)NCCCC[C@H](NC(=O)[C@H](CO)NC(=O)[C@@H]1CCCN1C(=O)[C@@H]1CCCN1C(=O)[C@@H]1CCCN1C(=O)[C@H](C)NC(=O)CNC(=O)[C@H](CO)NC(=O)[C@H](CO)NC(=O)[C@@H]1CCCN1C(=O)CNC(=O)CNC(=O)[C@@H]1CCCCNC(=O)CC[C@H](NC(=O)[C@@H](NC(=O)[C@H](Cc2ccccc2)NC(=O)[C@H](CCC(=O)O)NC(=O)[C@H](CCCCN)NC(=O)[C@@H](NC(=O)[C@H](C)NC(=O)[C@H](CCC(=O)O)NC(=O)[C@H](CCCCN)NC(=O)[C@H](CCC(=O)O)NC(=O)[C@H](CCSC)NC(=O)[C@H](Cc2ccc(O)cc2)NC(=O)[C@@H](NC(=O)[C@H](CO)NC(=O)[C@H](Cc2ccc(O)cc2)NC(=O)[C@H](CC(=O)O)NC(=O)[C@H](CO)NC(=O)[C@@H](NC(=O)[C@H](Cc2ccccc2)NC(=O)[C@@H](NC(=O)CNC(=O)[C@H](CCC(=O)O)NC(=O)C(C)(C)NC(=O)[C@@H](N)Cc2ccc(O)cc2)[C@@H](C)O)[C@@H](C)O)[C@@H](C)CC)C(C)C)[C@@H](C)CC)C(=O)N[C@@H](Cc2c[nH]c3ccccc23)C(=O)N[C@@H](CC(C)C)C(=O)N[C@@H](C(C)C)C(=O)N1)C(N)=O [Compound 102] (H-Y[Aib]EGTFTSDYSIYMEKEAVKEFIEWLVKGGPSSGAPPPSK(Palmitoyl)-NH2; lactam 24-28; N-terminus assumed)	0.015 nM	460	0.069 nM	510.1						
CCCCCCCCCCCCCCCC(=O)NCCCC[C@H](NC(=O)[C@H](CO)NC(=O)[C@@H]1CCCN1C(=O)[C@@H]1CCCN1C(=O)[C@@H]1CCCN1C(=O)[C@H](C)NC(=O)CNC(=O)[C@H](CO)NC(=O)[C@H](CO)NC(=O)[C@@H]1CCCN1C(=O)CNC(=O)CNC(=O)[C@H](CCCCN)NC(=O)[C@@H](NC(=O)[C@H](CC(C)C)NC(=O)[C@H](Cc1c[nH]c2ccccc12)NC(=O)[C@H](CS)NC(=O)[C@@H](NC(=O)[C@H](Cc1ccccc1)NC(=O)[C@H](CCC(=O)O)NC(=O)[C@H](CCCNC(=N)N)NC(=O)[C@@H](NC(=O)[C@H](C)NC(=O)[C@H](CCC(=O)O)NC(=O)[C@H](CCCCN)NC(=O)[C@H](CCC(=O)O)NC(=O)[C@H](CCSC)NC(=O)[C@H](Cc1ccc(O)cc1)NC(=O)[C@@H](NC(=O)[C@H](CO)NC(=O)[C@H](Cc1ccc(O)cc1)NC(=O)[C@H](CC(=O)O)NC(=O)[C@H](CO)NC(=O)[C@@H](NC(=O)[C@H](Cc1ccccc1)NC(=O)[C@@H](NC(=O)CNC(=O)[C@H](CCC(=O)O)NC(=O)C(C)(C)NC(=O)[C@@H](N)Cc1ccc(O)cc1)[C@@H](C)O)[C@@H](C)O)[C@@H](C)CC)C(C)C)[C@@H](C)CC)C(C)C)C(N)=O [Compound 096] (H-Y[Aib]EGTFTSDYSIYMEKEAVREFICWLVKGGPSSGAPPPSK(Palmitoyl)-NH2)	0.1 nM	42	0.253 nM	404.7						
CC[C@H](C)[C@H](NC(=O)[C@H](CO)NC(=O)[C@H](Cc1ccc(O)cc1)NC(=O)[C@H](CC(=O)O)NC(=O)[C@H](CO)NC(=O)[C@@H](NC(=O)[C@H](Cc1ccccc1)NC(=O)[C@@H](NC(=O)CNC(=O)[C@H](CCC(=O)O)NC(=O)C(C)(C)NC(=O)[C@@H](N)Cc1ccc(O)cc1)[C@@H](C)O)[C@@H](C)O)C(=O)N[C@@H](Cc1ccc(O)cc1)C(=O)N[C@@H](CCSC)C(=O)N[C@@H](CCC(=O)O)C(=O)N[C@@H](CCCCN)C(=O)N[C@@H](CCC(=O)O)C(=O)N[C@@H](C)C(=O)N[C@H](C(=O)N[C@@H](CCCNC(=N)N)C(=O)N[C@@H](CCC(=O)O)C(=O)N[C@@H](Cc1ccccc1)C(=O)N[C@H](C(=O)N[C@@H](CS)C(=O)N[C@@H](Cc1c[nH]c2ccccc12)C(=O)N[C@@H](CC(C)C)C(=O)N[C@H](C(=O)N[C@@H](CCCCN)C(=O)NCC(=O)NCC(=O)N1CCC[C@H]1C(=O)N[C@@H](CO)C(=O)N[C@@H](CO)C(=O)NCC(=O)N[C@@H](C)C(=O)N1CCC[C@H]1C(=O)N1CCC[C@H]1C(=O)N1CCC[C@H]1C(=O)N[C@@H](CO)C(=O)N[C@@H](CCCCN)C(N)=O)C(C)C)[C@@H](C)CC)C(C)C [Compound 105] (H-Y[Aib]EGTFTSDYSIYMEKEAVREFICWLVKGGPSSGAPPPSK-NH2; N-terminus assumed)	0.4 nM		3.94 nM							
CC[C@H](C)[C@H](NC(=O)[C@H](Cc1ccccc1)NC(=O)[C@H](CC(C)C)NC(=O)[C@H](CCCCN)NC(=O)[C@H](C)NC(=O)[C@H](C)NC(=O)[C@H](CCC(N)=O)NC(=O)[C@H](CCCCN)NC(=O)[C@H](CCC(=O)O)NC(=O)[C@H](CCSC)NC(=O)[C@H](Cc1ccc(O)cc1)NC(=O)[C@@H](NC(=O)[C@H](CO)NC(=O)[C@H](Cc1ccc(O)cc1)NC(=O)[C@H](CC(=O)O)NC(=O)[C@H](CO)NC(=O)[C@@H](NC(=O)[C@H](Cc1ccccc1)NC(=O)[C@@H](NC(=O)CNC(=O)[C@H](CCC(=O)O)NC(=O)C(C)(C)NC(=O)[C@@H](N)Cc1ccc(O)cc1)[C@@H](C)O)[C@@H](C)O)[C@@H](C)CC)C(=O)N[C@@H](CCC(=O)O)C(=O)N[C@@H](Cc1c[nH]c2ccccc12)C(=O)N[C@@H](CC(C)C)C(=O)N[C@@H](CCCCN)C(=O)N[C@@H](CC(N)=O)C(=O)NCC(N)=O [Compounds 026] (H-Y[Aib]EGTFTSDYSIYMEKQAAKLFIEWLKNG-NH2)		11.9		288	4.2 nM	11.9%	0.38 nM	288%		
Tyr-Aib-Glu-Gly-Thr-Phe-Thr-Ser-Asp-Tyr-Ser-Ile-Tyr-Nle-Glu-Lys-Ile-His-Gln-Gln-Asp-Phe-Val-Asn-Trp-Leu-Val-Arg-Gln(NH2) (Y[Aib]EGTFTSDYSIY[Nle]EKIHQQDFVNWLVRQ-NH2) [Analog 021]									21%	around 5%
